How the values were obtained:
[1] = test system: splenocyte cell line; assay: TNF-α secretion of LPS treated splenocyte cell line (sandwich ELISA); type: cell-based; settings: 20 μM daurinol; LPS 100 ng/mL
Method: (§1) For this purpose, a splenocyte cell line was treated with anti-CD3 antibodies (0.5 μg/mL) to induce the secretion of IL-17, or treated with LPS (100 ng/mL) to induce the secretion of TNF-α. Then, the splenocyte cell line was treated with daurinol at concentrations of 0.5 μM, 2.5 μM, and 20 μM, and the supernatants were combined and the amount of IL-17 and TNF-α were examined by sandwich ELISA assay. The resultant was reacted in a 96-well plate with monoclonal anti-IL-17 or anti-TNF-α (2 μg/mL) at 4° C. overnight, and upon reaction, the non-specific binding was blocked using a blocking solution (1% BSA/PBST). IL-17 recombinant or TNF-α in a half amount was continuously diluted and used as standards, and the supernatant of cell culture was reacted at room temperature for 2 hours. Then, the biotinylated anti-IL-17 was reacted at room temperature for 2 hours, washed 4 times, and added with ExtraAvidin-alkaline phosphatase conjugate after dilution, and reacted at room temperature for 2 hours. Subsequently, PNPP/DEA solution was added thereto to fix color and absorbance was measured at 405 nm.

[2] = test system: regulatory T lymphocytes (Treg); assay: Regulatory T cells (Treg) by flow cytometer in allogenic reaction; type: cell-based, mouse; settings: control not treated 7.27%
Method: For the confirmation of the effect of the daurinol compound on the inhibition of T cell proliferation and the expression amount of IL-17, the CD4+ T cells (2×10^5 cells) of a normal recipient (Balb/c, responder), and the T cell-removed splenocytes (2×10^5 cells) derived from a recipient (homogenic) or the splenocytes (2×10^5 cells) derived from a donor (C57BL/6, stimulator, allogenic) exposed to irradiation were added to each well of a 96-well round bottom plate, mixed, and cultured in vitro. In particular, the T cell proliferation and the secretion of IL-17 when an allogenic reaction was untreated with daurinol or treated with daurinol at 0.5 μM, 2 μM, 10 μM, and 20 μM, respectively, were observed.
In this regard, for the confirmation of the effect of the daurinol compound according to the present invention on the activity of regulatory T lymphocytes (Treg), the present inventors analyzed the T cells isolated in Example <4-2> by a flow cytometer. That is, the T cells isolated in Example <4-2> were collected, washed with the FACs buffer, and reacted at 4° C. for the blocking of nonspecific binding for 5 minutes, and washed with the FACs buffer. […] Upon staining of the cells, the cells were washed with buffer and analyzed using the fluorescent-activated cell sorter (FACs).

[3] = test system: splenocytes of an animal model with obesity arthritis; assay: Th17/Treg activity by flow cytometry in splenocytes of animal model with obesity arthritis; type: cell-based; settings: daurinol 1 μM, anti-CD3 0.5 μg/mL, 3 days
Method: Additionally, for the confirmation of controlling the activity of Th17/Treg cells, the splenocytes of an animal model with obesity arthritis were treated with daurinol (1 μM) and anti-CD3 (0.5 μg/mL) and cultured for 3 days, and the activity of Th17/Treg cells controlled by daurinol were evaluated via flow cytometry.

[4] = test system: splenocytes of the animal model with lupus; assay: TNF-α level in splenocytes of animal model with lupus (ELISA); type: cell-based; settings: daurinol 1 μM and 5 μM, anti-CD3 0.5 μg/mL or LPS 100 ng/mL, three days
Method: (§2) Additionally, for the confirmation of the effect of controlling the formation of inflammatory cytokines, the splenocytes of the animal model with lupus were treated with daurinol (1 μM and 5 μM) and anti-CD3 (0.5 μg/mL) or LPS (100 ng/mL) for three days and the levels of IL-17 and TNF-α inflammatory cytokines were evaluated by ELISA assay.

[5] = test system: mouse with induced inflammatory bowel disease (IBD); assay: Inflammatory cytokines in the serum of IBD animal model (ELISA); type: in vivo; settings: IBD mice treated with daurinol
Description: For the confirmation of the effect of the daurinol compound of the present invention on the treatment of inflammatory bowel disease, the present inventors first constructed an animal model with induced inflammatory bowel disease. For the experimental model, C57BL/6(H-2kb) mice were used. For the construction of an animal model with induced inflammatory bowel disease, the mice were fed with 3.5% dextran sulfate sodium (DSS) and water for a week, thereby preparing an animal model with induced inflammatory bowel disease.
The present inventors divided the experimental animals into a normal control group, a group of an animal model with induced inflammatory bowel disease, and a group of an animal model with induced inflammatory bowel disease treated with daurinol or a TNF-α inhibitor, and the group treated with daurinol was administered orally and intrarectally with daurinol (20 mg/kg) from the 4th day after the induction with the disease.
Sera were isolated from a mouse with induced inflammatory bowel disease (IBD), and mice treated with daurinol and TNF-α inhibitor, respectively. The levels of IL-17, IFNγ, IL-6, and the like, which are inflammatory cytokines, in the isolated sera were measured by ELISA assay.

[6] = test system: splenocyte cell line; assay: IL-17 secretion of anti-CD3 treated splenocyte cell line (sandwich ELISA); type: cell-based; settings: anti-CD3 antibodies 0.5 μg/mL
Method: as §1, with “Then, the splenocyte cell line was treated with daurinol at concentrations of 0.5 μM, 2.5 μM, and 20 μM, and the supernatants were combined and the amount of IL-17 and TNF-α were examined by sandwich ELISA assay.” left out

[7] = test system: splenocytes of an animal model with lupus; assay: IgG antibody formation in splenocytes of animal model with lupus (ELISA); type: cell-based; settings: daurinol 1 μM and 5 μM, LPS 100 ng/mL, three days
Method: First, regarding the effect of controlling the autoantibody formation, the splenocytes of an animal model with lupus were treated with daurinol (1 μM and 5 μM) and LPS (100 ng/mL) for three days and the levels of IgG antibodies expressed thereof were evaluated by ELISA assay.

[8] = test system: splenocytes of the animal model with lupus; assay: IL-17 level in splenocytes of animal model with lupus (ELISA); type: cell-based; settings: daurinol 1 μM and 5 μM, anti-CD3 0.5 μg/mL or LPS 100 ng/mL, three days
Method: as §2

## COc1cc2c(-c3ccc4c(c3)OCO4)c3c(cc2cc1O)COC3=O [daurinol]
[1]
  secretion of TNF-α decreased by: about 40%
[2]; daurinol 1 μM
  Treg cells: 9.18%
[2]; daurinol 5 μM
  Treg cells: 16.6%
[3]
  activity of Foxp3+ Treg cells (flow cytometry): induced the activity of Foxp3+ Treg cells
  expression of IL-17 (Th17, flow cytometry): significantly inhibited the expression of IL-17
[4]
  expression of TNF-α (ELISA): inhibited the expression of IL-17 and TNF-α in a dose-dependent manner
[5]
  level of IFNγ in serum (ELISA): significantly inhibits
  level of IL-6 in serum (ELISA): significantly inhibits
  level of IL-17 in serum (ELISA): significantly inhibits
[6]; 2 μM daurinol
  secretion of IL-17 decreased to: 50%
[6]; 20 μM daurinol
  secretion of IL-17: no secretion was observed
[7]
  formation of IgG antibodies (ELISA): inhibited the formation of IgG antibodies in a dose-dependent manner
[8]
  expression of IL-17 (ELISA): inhibited the expression of IL-17 and TNF-α in a dose-dependent manner
